Where “and” joins values, the source holds several entries; their conditions need not be identical. Equal values may be shown once. Read-outs that look alike come from different tables or passages of the source.
How the values were obtained:
[1] = log P by HPLC on reversed phase columns (EEC directive 79/831 Annex V.A8); format: physicochemical
[2] = system: Uromyces appendiculatus; experiment: In vivo preventive test on Uromyces appendiculatus (bean rust); conditions: preventive spray, bean plants, grading 11 days after contamination
Protocol: Bean plants (“Saxa” variety), sown in starter cups on a 50/50 peat soil-pozzolana substrate and grown at 24° C., are treated at the 2-leaf stage (9 cm height) by spraying with the active ingredient prepared as described above. Plants, used as controls, are treated with the mixture of acetone/tween/DMSO/water not containing the active material. After 24 hours, the plants are contaminated by spraying the leaves with an aqueous suspension of Uromyces appendiculatus spores (150 000 spores per ml). […] Grading (% of efficacy) is carried out 11 days after the contamination, in comparison with the control plants.

[3] = system: Puccinia recondita; experiment: In vivo preventive test on Puccinia recondita (brown rust on wheat); conditions: preventive spray, wheat plants, grading 12 days after contamination
Protocol: Plants, used as controls, are treated with the mixture of acetone/tween/DMSO/water not containing the active material. After 24 hours, the plants are contaminated by spraying the leaves with an aqueous suspension of Puccinia […] spores (100 000 spores per ml). […] Grading (% of efficacy) is carried out 12 days after the contamination, in comparison with the control plants.

[4] = system: Septoria tritici; experiment: In vivo preventive test on Septoria tritici (leaf spot on wheat); conditions: 500 ppm, preventive spray, wheat plants, grading 24 days after contamination
Protocol: Wheat plants (“Scipion” variety), sown in starter cups on a 50/50 peat soil-pozzolana substrate and grown at 22° C., are treated at the 1-leaf stage (10 cm height) by spraying with the active ingredient prepared as described above. Plants, used as controls, are treated with the mixture of acetone/tween/DMSO/water not containing the active material. After 24 hours, the plants are contaminated by spraying the leaves with an aqueous suspension of cryopreserved Septoria tritici spores (500 000 spores per ml). […] Grading (% of efficacy) is carried out 24 days after the contamination, in comparison with the control plants.

[5] = system: Sphaerotheca fuliginea; experiment: In vivo preventive test on Sphaerotheca fuliginea (powdery mildew on cucurbits); conditions: preventive spray, gherkin plants, grading 12 days after contamination
Protocol: Gherkin plants (“Vert petit de Paris” variety), sown in starter cups on a 50/50 peat soil-pozzolana substrate and grown at 24° C., are treated at the Z11 cotyledon stage by spraying with the active ingredient prepared as described above. Plants, used as controls, are treated with the mixture of acetone/tween/DMSO/water not containing the active material. After 24 hours, the plants are contaminated by spraying the cotyledons with an aqueous suspension of Sphaerotheca fuliginea spores (100 000 spores per ml). The spores are collected from infected plants. The contaminated gherkin plants are incubated at about 20° C. and at 70-80% relative humidity. Grading (% of efficacy) is carried out 12 days after the contamination, in comparison with the control plants.

[6] = system: Pyrenophora teres; experiment: In vivo preventive test on Pyrenophora teres (net blotch on barley); conditions: 500 ppm, preventive spray, barley plants, incubated 48 hours then 12 days
Protocol: Barley plants (“Plaisant” variety), sown in starter cups on a 50/50 peat soil-pozzolana substrate and grown at 22° C., are treated at the 1-leaf stage (10 cm height) by spraying with the active ingredient prepared as described above. Plants, used as controls, are treated with the mixture of acetone/tween/DMSO/water not containing the active material. After 24 hours, the plants are contaminated by spraying the leaves with an aqueous suspension of Pyrenophora teres spores (12 000 spores per ml). The spores are collected from a 12-day-old culture.

[7] = Table 1, compounds of formula (I), method [a]: LC-MS at pH 2.7, 0.1% formic acid in water / acetonitrile
[8] = Table 2, amines of formula (III-a), method [a]: LC-MS at pH 2.7, 0.1% formic acid in water / acetonitrile

SMILES	logP [1, 7]	logP [1, 8]	Eff. % ([2]; 500 ppm)	Eff. % ([3]; 500 ppm)	further results
Cc1nn(C)c(C)c1C(=S)Nc1cccc2c1C(C)CC2CC(C)C (centres unmarked) [Example 40]	4.25[a]	–	100%	98%	–
CCCON=C1CC(C)c2c(N)cccc21.Cl (centres unmarked) [Example III-a-18]	–	2.78[a]	–	–	–
CCCCON=C1CCc2c(NC(=O)c3cn(C)nc3C(F)F)cccc21 [Example 21]	3.59[a]	–	–	–	Eff. % [4]: 70%
CCON=C1CC(C)c2c(N)cccc21.Cl (centres unmarked) [Example III-a-19]	–	2.26[a]	–	–	–
Cc1nn(C)c(F)c1C(=O)Nc1cccc2c1C(C)CC2CC(C)(C)C (centres unmarked) [Example 35]	4.61[a]	–	100%	98%	Eff. % ([5]; 500 ppm): 100%
CCCON=C1CCc2c(NC(=O)c3cn(C)nc3C(F)F)cccc21 [Example 30]	3.15[a]	–	95%	71%	Eff. % ([5]; 500 ppm): 90%; Eff. % [4]: 85%
CC1CC2(CC2)c2cccc(N)c21 (centres unmarked) [Example III-a-16, 3′-methyl-2′,3′-dihydrospiro[cyclopropane-1,1′-inden]-4′-amine]	–	–	–	–	chromatographic logP ([1]; reversed phase HPLC columns, Table 2, amines of formula (III-a), method [a]: LC-MS at pH 2.7, 0.1% formic acid in water / acetonitrile, read-out: logP): 1.93
Cc1nn(C)c(F)c1C(=O)Nc1cccc2c1CCC21CC1 [Example 15]	–	–	100%	94%	–
CON=C1CCc2c(N)cccc21.Cl [III-a-9]	–	1.26[a]	–	–	–
CC1CC(C(C)C)c2cccc(N)c21 (centres unmarked) [Example III-a-11]	–	2.73[a]	–	–	–
CCCCON=C1CCc2c(N)cccc21.Cl [III-a-8]	–	2.86[a]	–	–	–
CCON=C1CCc2c(N)cccc21.Cl [III-a-10]	–	1.75[a]	–	–	–
Cc1nn(C)c(C)c1C(=S)Nc1cccc2c1C(C)CC21CC1 (centres unmarked) [Example 39, 1,3,5-trimethyl-N-(3′-methyl-2′,3′-dihydrospiro[cyclopropane-1,1′-inden]-4′-yl)-1H-pyrazole-4-carbothioamide]	–	–	100%	89%	chromatographic logP ([1]; pH 2.7): 3.06
Nc1cccc2c1CCC21CC1 [Example III-a-2]	–	1.37[a]	–	–	–
Cc1nn(C)c(C)c1C(=O)Nc1cccc2c1C(C)CC2CC(C)C (centres unmarked) [Example 14]	3.87[a]	–	99%	98%	–
CC(C)CC1CC(C)c2c(N)cccc21 (centres unmarked) [Example III-a-23]	–	3.42[a]	–	–	–
CCCON=C1CCc2c(N)cccc21.Cl [III-a-7]	–	2.26[a]	–	–	–
Cc1nn(C)c(C)c1C(=O)Nc1cccc2c1C(C)CC2C(C)(C)C (centres unmarked) [Example 16]	4.13[a]	–	100%	98%	–
CC(C)(C)C1CCc2c(N)cccc21 (centres unmarked) [Example III-a-21]	–	2.4[a]	–	–	–
CC1CC(C(C)C)c2cccc(N)c21 (centres unmarked) [Example III-a-12]	–	2.86[a]	–	–	–
CC1CC(C)c2c(N)cccc21 (centres unmarked) [III-a-15]	–	1.76[a]	–	–	–
Cc1nn(C)c(C)c1C(=O)Nc1cccc2c1C(C)CC21CC1 (centres unmarked) [Example 22, 1,3,5-trimethyl-N-(3′-methyl-2′,3′-dihydrospiro[cyclopropane-1,1′-inden]-4′-yl)-1H-pyrazole-4-carboxamide]	–	–	100%	81%	chromatographic logP ([1]; pH 2.7): 2.7
CC1CC2(CC2(Cl)Cl)c2cccc(N)c21 (mixture of isomers) [Example III-a-1]	–	3.04 and 2.94	–	–	–
Cc1nn(C)c(F)c1C(=S)Nc1cccc2c1C(C)CC2CC(C)(C)C (centres unmarked) [Example 43]	4.87[a]	–	100%	98%	Eff. % ([5]; 500 ppm): 100%
CCC1(C)CCc2c(N)cccc21 (centres unmarked) [Example III-a-17]	–	1.88[a]	–	–	–
CC1CC(CC(C)(C)C)c2cccc(N)c21 (centres unmarked) [Example III-a-22]	–	3.83[a]	–	–	–
CON=C1CC(C)c2c(N)cccc21.Cl (centres unmarked) [III-a-20]	–	1.76[a]	–	–	–
CC(C)CC1CCc2c(N)cccc21 (centres unmarked) [Example III-a-14]	–	2.64[a]	–	–	–
Cc1nn(C)c(O)c1C(=O)Nc1cccc2c1CCC21CC1 [Example 26]	2.04[a]	–	–	–	Eff. % [4]: 71%
CCON=C1CC(C)c2c(NC(=O)c3c(C)nn(C)c3F)cccc21 (centres unmarked) [Example 29]	2.76[a]	–	80%	81%	Eff. % [6]: 75%

More lines, main results first:

logP [1, 7]	logP [1, 8]	SMILES	Eff. % ([2]; 500 ppm)	Eff. % ([3]; 500 ppm)	further results
2.8[a]	–	Cn1cc(C(=O)Nc2cccc3c2C(C)(C)CC3)c(C(F)F)n1 [Example 36]	–	–	–
4.11[a]	–	CC(C)CC1CCc2c(NC(=O)c3cn(C)nc3C(F)F)cccc21 (centres unmarked) [Example 32]	100%	98%	Eff. % ([5]; 500 ppm): 98%; Eff. % [4]: 71%
3.33[a]	–	Cn1cc(C(=O)Nc2cccc3c2CCC32CC2(Cl)Cl)c(C(F)F)n1 (centres unmarked) [Example 5]	100%	–	Eff. % ([5]; 500 ppm): 100%; Eff. % [4]: 71%
2.55[a]	–	Cc1c(C(=O)Nc2cccc3c2C(C)CC32CC2)cnn1C (centres unmarked) [Example 48]	–	–	Eff. % ([5]; 100 ppm): 81%; Eff. % ([2]; 100 ppm): 100%; Eff. % ([3]; 100 ppm): 98%
2.99[a]	–	CCc1nn(C)cc1C(=O)Nc1cccc2c1C(C)CC21CC1 (centres unmarked) [Example 51]	–	–	–
3.5[a]	–	CC1CC2(CC2(Cl)Cl)c2cccc(NC(=O)c3cn(C)nc3C(F)F)c21 (centres unmarked) [Example 4]	100%	100%	Eff. % ([5]; 500 ppm): 100%; Eff. % [4]: 100%
2.96[a]	–	Cn1cc(C(=O)Nc2cccc3c2CCC32CC2)c(C(F)F)n1 [Example 17]	100%	98%	Eff. % [6]: 70%
2.57[a]	–	Cc1nn(C)c(C)c1C(=O)Nc1cccc2c1CCC21CC1 [Example 13]	100%	89%	–
4.04[a]	–	CC1CC2(CC2)c2cccc(NC(=O)c3c(C4CC4)nn(C)c3Cl)c21 (centres unmarked) [Example 45]	–	–	–
4.31[a]	–	CC1CC2(CCCC2)c2cccc(NC(=O)c3cn(C)nc3C(F)F)c21 (centres unmarked) [Example 49]	–	–	Eff. % ([3]; 100 ppm): 89%
3.94[a]	–	Cn1cc(C(=O)Nc2cccc3c2CCC3C(C)(C)C)c(C(F)F)n1 (centres unmarked) [Example 28]	100%	100%	Eff. % ([5]; 500 ppm): 100%; Eff. % [4]: 86%
2.59[a]	–	CON=C1CCc2c(NC(=O)c3cn(C)nc3C(F)F)cccc21 [Example 23]	–	94%	–
3.29[a]	–	CC(C)c1nn(C)cc1C(=O)Nc1cccc2c1C(C)CC21CC1 (centres unmarked) [Example 56]	–	–	–
3.72[a]	–	CC1CC2(CC2)c2cccc(NC(=O)c3c(C(F)(F)F)nn(C)c3F)c21 (centres unmarked) [Example 55]	–	–	Eff. % ([3]; 100 ppm): 85%
1.61[a]	–	Cn1cc(C(=O)Nc2cccc3c2CCC3O)c(C(F)F)n1 (centres unmarked) [Example 37]	–	–	–
2.45[a]	–	CON=C1CC(C)c2c(NC(=O)c3cn(C)nc3C(F)F)cccc21 (centres unmarked) [Example 31]	99%	–	Eff. % [4]: 79%
3.44[a]	–	Cc1nn(C)c(Cl)c1C(=O)Nc1cccc2c1C(C)CC21CC1 (centres unmarked) [Example 47]	–	–	Eff. % ([2]; 100 ppm): 100%; Eff. % ([3]; 100 ppm): 95%
2.99[a]	–	CCc1c(C(=O)Nc2cccc3c2C(C)CC32CC2)cnn1C (centres unmarked) [Example 54]	–	–	–
3.6[a]	–	CC(C)C1CCc2c(NC(=O)c3cn(C)nc3C(F)F)cccc21 (centres unmarked) [Example 2]	100%	98%	Eff. % ([5]; 500 ppm): 94%
3.35[a]	–	CC1CC2(CC2)c2cccc(NC(=O)c3cn(C)nc3C(F)(F)F)c21 (centres unmarked) [Example 10]	99%	100%	–
3.01[a]	–	CC1CCc2c(NC(=O)c3cn(C)nc3C(F)F)cccc21 (centres unmarked) [Example 50]	–	–	Eff. % ([3]; 100 ppm): 78%
